In paper PMC9640980, “Pharmacological evaluation of enantiomerically separated positive allosteric modulators of cannabinoid 1 receptor, GAT591 and GAT593” (Frontiers in Pharmacology, 2022):

Tests used:
[1] = target: T1, human CB1R (hCB1R) (Homo sapiens, UniProt P21554); assay: PathHunter βarrestin2 recruitment assay in hCB1R CHO-K1 cells; format: cell-based; conditions: for activity in the βarrestin2 recruitment assay as PAM, in words: as PAMs, 100 nM CP55,940; for βarrestin2 recruitment to hCB1R, in words: as agonist (and PAM where stated), Figures 3B,D; for EC50: compound alone, hCB1R CHO-K1, 90 min, value (95% CI), Figure 3B, read-out: EC50 (nM) 95% C.I., βarrestin2 recruitment as agonist
T1 construct: host or cells: CHO-K1 (PathHunter βarrestin2 line)
T1 sequence (P21554 whole entry): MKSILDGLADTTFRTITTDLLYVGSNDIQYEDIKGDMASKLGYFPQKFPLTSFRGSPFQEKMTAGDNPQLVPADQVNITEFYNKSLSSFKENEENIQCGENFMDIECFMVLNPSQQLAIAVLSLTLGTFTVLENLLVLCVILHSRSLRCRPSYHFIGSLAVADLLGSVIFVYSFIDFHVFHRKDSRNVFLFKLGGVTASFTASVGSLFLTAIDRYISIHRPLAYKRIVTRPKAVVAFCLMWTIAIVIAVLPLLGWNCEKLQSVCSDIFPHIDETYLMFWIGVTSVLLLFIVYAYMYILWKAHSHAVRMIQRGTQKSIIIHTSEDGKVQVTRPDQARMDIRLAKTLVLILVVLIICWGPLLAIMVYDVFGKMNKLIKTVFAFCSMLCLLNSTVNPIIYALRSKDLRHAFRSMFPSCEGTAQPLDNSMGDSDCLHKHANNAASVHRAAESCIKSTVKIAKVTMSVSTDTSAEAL
Description: (§1) HitHunter (cAMP) and PathHunter (βarrestin2) Chinese hamster ovary (CHO)-K1 cells stably-expressing human CB1R (hCB1R) from DiscoveRx (Eurofins, Freemont, CA) were maintained at 37°C, 5% CO2 in DMEM/F-12 containing 10% fetal bovine serum (FBS) and 5 U × 10^4 U penicillin/streptomycin (ThermoFisher, Mississauga, ON). In addition, 800 μg/ml geneticin was used for CHO-K1 hCB1R HitHunter cAMP cells and 800 μg/ml geneticin and 300 μg/ml hygromycin B was used for CHO-K1 hCB1R PathHunter βarrestin2 cells.
βarrestin2 recruitment was determined using the hCB1R CHO-K1 cell PathHunter assay (DiscoveRx). Cells (16,000 cells/well in 96 well plates) were incubated overnight in Opti-MEM (Invitrogen) containing 1% FBS at 37°C and 5% CO2. Cells were then simultaneously treated with experimental compounds (0.10 nM–10 µM) for 90 min. Detection solution was added to cells according to the manufacturer’s protocol (DiscoveRx), and cells were incubated for 60 min at room temperature. Chemiluminescence was measured on a Cytation5 plate reader (top read, gain 200, integration time 10 s).
(§2) Data related to EC50 and E max in Figures 3, 4 were obtained with nonlinear regression models (3-parameter model, GraphPad Prism 9.0, San Diego, CA). […] Significance was determined by one- or two-way ANOVA followed by Tukey’s or Bonferroni’s post-hoc test as indicated. p < 0.05 was considered significant and p values were only employed where ANOVA was used. Data related to Figure 5 was analyzed in GraphPad Prism 9.0 was used to analyze in vivo data and p < 0.05 was considered to be statistically significant. Data are expressed as mean ± SEM. Group sizes for all experiments are described in figure legends.

[2] = test system: male C57BL/6 mice; assay: Triad assessment in mice: catalepsy (bar holding assay); format: in vivo, mouse; conditions: for catalepsy, compound alone: 0.1, 1, 3, or 10 mg/kg i.p. compared to vehicle, male C57BL/6 mice, Figure 5A; for cataleptic effect, co-administered with THC: 3 and 10 mg/kg i.p. + sub-threshold 1 mg/kg THC, Figure 5D
Description: (§3) Male C57BL/6 mice (Charles River, Senneville, QC) between 4 and 7 months of age were used for these studies. Animals were group housed at the Laboratory Animal Services Unit (LASU) at the University of Saskatchewan (3-5 animals/cage) with a standard 12:12 light-dark cycle, ad libitum access to food and water, and environmental enrichment. Compounds administered intraperitoneally (i.p.) were prepared in vehicle [ethanol and cremophor in saline (1:1:8)]. Catalepsy was assessed in the bar holding assay 5 min after drug administration. Mice were placed so that their forepaws clasped a 0.7 cm ring clamp positioned 4.5 cm above the surface of the testing space ([Zagzoog et al., 2021]). The length of time the ring was held was recorded in seconds. The trial ended if the mouse turned its head or body or made 3 consecutive escape attempts to a maximum of 60 s. Body temperature was measured by rectal thermometer 15 min after drug administration. Anti-nociceptive effects were measured in the warm water (52 ± 2°C) tail-flick test 20 min after drug administration. Response in this case was defined by the removal of the tail from the warm water, with a maximal response time of 20 s. Catalepsy and tail flick data are presented as percent maximum possible effect (MPE). Compounds were administered at the doses indicated. Experimenters were blinded to treatment for all behavioral assessments and analyses. Animals were purchased, rather than bred, to reduce animal numbers. In all cases, experiments were performed with the approval of the University Animal Care Committee (UACC) at the University of Saskatchewan and are in keeping with the guidelines of the Canadian Council on Animal Care (CCAC) and the ARRIVE guidelines ([Kilkenny et al., 2010]).

[3] = target: T1, human CB1R (hCB1R); assay: HitHunter cAMP inhibition assay in hCB1R CHO-K1 cells (10 µM forskolin); format: cell-based; conditions: value (95% CI)
Description: as §1
cAMP inhibition was performed in the presence of 10 µM forskolin (FSK) using the DiscoveRx HitHunter assay in hCB1R CHO-K1 cells. Cells (16,000 cells/well in 96 well plates) were incubated overnight in Opti-MEM (Invitrogen) containing 1% FBS at 37°C and 5% CO2. Opti-MEM media was removed and replaced with cell assay buffer (DiscoveRx) and then cells were simultaneously treated with 10 µM FSK and experimental compounds (0.10 nM–10 µM) for 90 min cAMP antibody solution and working detection solutions were added according to the manufacturer’s protocol (DiscoveRx), and cells were incubated for 60 min at room temperature. cAMP solution A was added according to the manufacturer’s protocol (DiscoveRx) and cells were incubated for an additional 60 min at room temperature before chemiluminescence was measured on a Cytation5 plate reader (top read, gain 200, integration time 10 s).
as §2

[4] = target: T2, hCB1R (Homo sapiens, UniProt P21554); assay: [3H]CP55,940 radioligand binding to hCB1R CHO-K1 cell membranes; conditions: for Emax ± S.E.M., [3H]CP55,940 bound: 1 nM [3H]CP55,940, Figure 4A
T2 construct: expressed in transfected cells; host or cells: CHO-K1 cell membranes
T2 sequence (P21554 whole entry): as above
Description: The assay began with the addition of transfected hCB1R CHO-K1 cell membranes (25 µg protein per well). The assays were left to equilibrate at room temperature for 2 h before vacuum filtration using a Millipore Sigma 12-well sampling manifold and filter paper that had been soaked in wash buffer. Each reaction well was washed 3 times with a 2 ml aliquot of Tris-binding buffer. The filters were removed then submerged in 5 ml of scintillation fluid (Ultima Gold F, PerkinElmer, Buckinghamshire, United Kingdom). Radioactivity was quantified by liquid scintillation spectrometry.
as §2

[5] = test system: male C57BL/6 mice; assay: Triad assessment in mice: nociception (warm water tail-flick test); format: in vivo, mouse; conditions: for anti-nociceptive effects (tail flick), compound alone: 0.1, 1, 3, or 10 mg/kg i.p. compared to vehicle, male C57BL/6 mice, Figure 5C; for anti-nociceptive effect (tail flick), co-administered with THC: 3 and 10 mg/kg i.p. + sub-threshold 1 mg/kg THC, Figure 5F
Description: as §3

[6] = test system: male C57BL/6 mice; assay: Triad assessment in mice: body temperature (rectal thermometer); format: in vivo, mouse; conditions: for hypothermia, compound alone: 0.1, 1, 3, or 10 mg/kg i.p. compared to vehicle, male C57BL/6 mice, Figure 5B; for hypothermic effect, co-administered with THC: 3 and 10 mg/kg i.p. + sub-threshold 1 mg/kg THC, Figure 5E
Description: as §3

[7] = target: T2, hCB1R; assay: [35S]GTPγS G protein coupling assay, membranes of CHO-K1 cells overexpressing hCB1R; format: biochemical; conditions: absence of orthosteric agonist, Figure 4B; for EC50: value (95% CI), read-out: EC50 (nM) 95% C.I., [35S]GTPγS binding, compound alone
Description: This assay was conducted as described in previous reports ([Garai et al., 2020]). To summarize, the assay was completed in the presence of [35S]GTPγS (0.1 nM), GDP (30 µM), GTPγS (30 µM) using membranes derived from CHO-K1 cells (1 mg/ml) overexpressing hCB1R. Assay buffer consisted of 50 mM Tris, 10 mM MgCl2, 100 mM NaCl, 0.2 mM EDTA and 1 mM dithiothreitol (DTT) at pH 7.4. Membranes were incubated at 30°C for 90 min in a total volume of […]. Reactions were ended by the addition of ice-cold wash buffer (50 mM Tris and 1 mg/ml BSA, pH 7.4) followed by rapid filtration under vacuum through pre-soaked Whatman GF/B glass-fibre filters in a 24-well sampling manifold (Brandel Cell Harvester; Brandel Inc., Gaithersburg, MD, United States). Reaction wells were washed six times with a 1.2 ml aliquots of Tris-binding buffer. Filters were subsequently oven-dried for 60 min and placed in 3 ml of scintillation fluid (Ultima Gold XR, PerkinElmer). Bound radioactivity was determined by liquid scintillation counting. Basal [35S]GTPγS binding was determined in the presence of […] GDP without any compounds present. Non-specific binding was determined in the presence of […] GTPγS.
as §2

[8] = test system: male C57BL/6 mice; design: method as in Garai et al., 2020; conditions: 0.1, 1, 3, or 10 mg/kg (i.p.) compared to vehicle; ref Garai et al., 2020; cited from earlier work
[9] = test system: male C57BL/6 mice; design: method as in Garai et al., 2020; conditions: significant relative to vehicle at 3 and 10 mg/kg; ref Garai et al., 2020; cited from earlier work
[10] = test system: male C57BL/6 mice; design: method as in Garai et al., 2020; conditions: 0.1, 1, 3, or 10 mg/kg (i.p.) compared to vehicle; ref Garai et al., 2020; cited from earlier work; remark: listed apart in the source
[11] = design: method as in Garai et al., 2020; conditions: racemic mixtures; ref Garai et al., 2020; cited from earlier work
[12] = 100 nM CP55,940 + compound, Figure 3C, read-out: EC50 (nM) 95% C.I., cAMP inhibition as PAM
[13] = compound alone, hCB1R CHO-K1, 90 min, Figure 3A, read-out: EC50 (nM) 95% C.I., cAMP inhibition as agonist

Structure (SMILES)	activity in the βarrestin2 recruitment assay as PAM, in words [1]	βarrestin2 recruitment to hCB1R, in words [1]	EC50 [1]	catalepsy, compound alone [2]	EC50 [3, 12]	EC50 [3, 13]	EC50 [4]	Emax ± S.E.M., [3H]CP55,940 bound [4]	anti-nociceptive effects (tail flick), compound alone [5]	hypothermia, compound alone [6]	Emax ± S.E.M., [35S]GTPγS binding, compound alone [7]	EC50 [7]	cataleptic effect, co-administered with THC [2]	anti-nociceptive effect (tail flick), co-administered with THC [5]	hypothermic effect, co-administered with THC [6]	catalepsy, racemate alone [8]	anti-nociceptive effect in the tail flick assay, racemate alone [9]	hypothermia, racemate alone [10]	metabolic stability and blood brain barrier penetrance, in words [11]
O=[N+]([O-])CC(c1ccccc1F)c1c(-c2cccc(F)c2)[nH]c2c(F)cccc12 (centres unmarked) [GAT1666]	no activity	weak ability	> 10000 nM	did not produce	270 nM	1.3 nM	140 nM	140 ± 6.1 % radioligand bound	did not produce	did not produce	29 ± 2.6 % stimulation above baseline	120 nM							
O=[N+]([O-])C[C@@H](c1ccccc1F)c1c(-c2cccc(F)c2)[nH]c2c(F)cccc12 [GAT1667]		recruited βarrestin2 as low-potency agonists and PAMs	> 10000 nM	did not produce	1.8 nM	1.7 nM	28 nM	230 ± 5.4 % radioligand bound	did not produce	did not produce	34 ± 2.3 % stimulation above baseline	8 nM	significant	significant	significant				
O=[N+]([O-])CC(c1ccccc1F)c1c(-c2cccc(F)c2)[nH]c2cc(F)ccc12 (centres unmarked) [GAT1664]	no activity	did not recruit βarrestin2	> 10000 nM	did not produce	29 nM	2.8 nM	110 nM	140 ± 7.0 % radioligand bound	did not produce	did not produce	38 ± 3.1 % stimulation above baseline	110 nM							
O=[N+]([O-])CC(c1ccccc1F)c1c(-c2cccc(F)c2)[nH]c2cc(F)ccc12 (centres unmarked) [GAT591]																did not produce	dose-dependent anti-nociceptive effect	did not produce	
O=[N+]([O-])CC(c1ccccc1F)c1c(-c2cccc(F)c2)[nH]c2c(F)cccc12 (centres unmarked) [GAT593]																did not produce	dose-dependent anti-nociceptive effect	did not produce	superior to GAT591
O=[N+]([O-])C[C@@H](c1ccccc1F)c1c(-c2cccc(F)c2)[nH]c2cc(F)ccc12 [GAT1665]		recruited βarrestin2 as low-potency agonists and PAMs	> 10000 nM	did not produce	8.6 nM	1.1 nM	140 nM	190 ± 8.5 % radioligand bound	did not produce	did not produce	41 ± 4.2 % stimulation above baseline	21 nM	significant	significant	significant				
